In patent publication US8759535B2, “Substituted fused imidazole derivatives, pharmaceutical compositions, and methods of use thereof” (High Point Pharmaceuticals, LLC, priority 2010, dated 2014):
Counter-ions that a name gives are not always drawn.

The compounds below were run on HMOX1 (assay: HMOX1 Protein Assay (immunostaining of HO-1 in NHLF cells, GE InCell 1000)). Conditions: Homo sapiens, fold change above DMSO treated cells, 3 μM compound (asterisk), 16 h.
Format: cell-based
Outline: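 NHLF cells seeded overnight in FGM-2, then exposed to compound or DMSO vehicle for 16 h, fixed, and immunostained for HO-1 with Hoechst nuclear counterstain; imaged on InCell 1000. Values are fold change over DMSO-treated cells, generally at 5 μM (0.8% DMSO), with asterisked entries at 3 μM.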

In order of rising fold induction at 3 µM:
1. C[C@@H](NC(=O)c1ccc2c(c1)nc(Nc1nc3ccc(C(F)(F)F)cc3s1)n2C)C(=O)N1CCN(C)CC1 [Example 470, 1-Methyl-2-(6-trifluoromethyl-benzothiazol-2-ylamino)-1H-benzoimidazole-5-carboxylic acid [(R)-1-methyl-2-(4-methyl-piperazin-1-yl)-2-oxo-ethyl]-amide]  24.5
2. Cn1c(Nc2nc3ccc(C(F)(F)F)cc3s2)nc2cc(C(=O)NCC(=O)N3CC[C@H](O)C3)ccc21 [Example 403, 1-Methyl-2-(6-trifluoromethyl-benzothiazol-2-ylamino)-1H-benzoimidazole-5-carboxylic acid [2-((S)-3-hydroxy-pyrrolidin-1-yl)-2-oxo-ethyl]-amide]  24.8
3. Cn1c(Nc2nc3ccc(C(F)(F)F)cc3s2)nc2cc(C(=O)NCC(=O)N3CCOCC3)ccc21 [Example 422, 1-Methyl-2-(6-trifluoromethyl-benzothiazol-2-ylamino)-1H-benzoimidazole-5-carboxylic acid (2-morpholin-4-yl-2-oxo-ethyl)-amide]  25
4. Cn1c(Nc2nc3ccc(Cl)cc3s2)nc2cc(C(=O)NCCOCC(F)F)ccc21 [Example 259, 2-(6-Chloro-benzothiazol-2-ylamino)-1-methyl-1H-benzoimidazole-5-carboxylic acid [2-(2,2-difluoro-ethoxy)-ethyl]-amide]  25.4
5. C[C@@H](O)CNC(=O)c1ccc2c(c1)nc(Nc1nc3ccc(C(F)(F)F)cc3s1)n2C [Example 205, 1-Methyl-2-(6-trifluoromethyl-benzothiazol-2-ylamino)-1H-benzoimidazole-5-carboxylic acid ((R)-2-hydroxy-propyl)-amide]  33.1

Same assay, conditions: Homo sapiens, fold change above DMSO treated cells, 5 μM compound, 16 h

In order of rising fold induction at 5 µM:
1. CCN(CC)c1cc2c(cc1C(=O)OC)nc(Nc1nc3ccc(OC(F)(F)F)cc3s1)n2C [Example 69, 6-Diethylamino-1-methyl-2-(6-trifluoromethoxy-benzothiazol-2-ylamino)-1H-benzoimidazole-5-carboxylic acid methyl ester]  4.7
2. COC(=O)c1ccc2c(c1)nc(Nc1nc3ccc(SC(F)(F)F)cc3s1)n2C [Example 132, 1-Methyl-2-(6-trifluoromethylsulfanyl-benzothiazol-2-ylamino)-1H-benzoimidazole-5-carboxylic acid methyl ester]  5.8
3. COC(=O)c1ccc2c(c1)nc(Nc1nc3ccc(OC(F)(F)F)cc3s1)n2C [Example 2, 1-Methyl-2-(6-trifluoromethoxy-benzothiazol-2-ylamino)-1H-benzoimidazole-5-carboxylic acid methyl ester]  6.51
4. CCOC(=O)C1(NC(=O)c2ccc3c(c2)nc(Nc2nc4ccc(OC(F)(F)F)cc4s2)n3C)CC1 [Example 144, 1-{[1-Methyl-2-(6-trifluoromethoxy-benzothiazol-2-ylamino)-1H-benzimidazole-5-carbonyl]-amino}-cyclopropanecarboxylic acid ethyl ester]  7.3
5. Cc1ccc2nc(Nc3nc4cc(C(=O)NCC(=O)N(C)C)ccc4n3C)sc2c1 [Example 363, 1-Methyl-2-(6-methyl-benzothiazol-2-ylamino)-1H-benzoimidazole-5-carboxylic acid dimethylcarbamoylmethyl-amide]  10
6. Cn1c(Nc2nc3ccc(OC(F)(F)F)cc3s2)nc2cc(C(=O)NCCN3CCCC(O)C3)ccc21 (stereo not drawn) [Example 193, 1-Methyl-2-(6-trifluoromethoxy-benzothiazol-2-ylamino)-1H-benzoimidazole-5-carboxylic acid [2-(3-hydroxy-piperidin-1-yl)ethyl]-amide]  11.1
7. CN(C)C(=O)CNC(=O)c1cnc2c(c1)nc(Nc1nc3ccc(OC(F)(F)F)cc3s1)n2C [Example 74, 3-Methyl-2-(6-trifluoromethoxy-benzothiazol-2-ylamino)-3H-imidazo[4,5-b]pyridine-6-carboxylic acid dimethylcarbamoylmethyl-amide]  11.1
8. CNC(=O)c1ccc2c(c1)nc(Nc1nc3ccc(Cl)cc3s1)n2C [Example 88, 2-(6-Chloro-benzothiazol-2-ylamino)-1-methyl-1H-benzoimidazole-5-carboxylic acid methylamide]  13
9. Cn1c(Nc2nc3ccc(OC(F)(F)F)cc3s2)nc2cc(C(=O)NCCc3cccc(O)c3)ccc21 [Example 252, 1-Methyl-2-(6-trifluoromethoxy-benzothiazol-2-ylamino)-1H-benzoimidazole-5-carboxylic acid [2-(3-hydroxy-phenyl)-ethyl]-amide]  13.1
10. Cn1c(Nc2nc3ccc(OC(F)(F)F)cc3s2)nc2cc(C(=O)NCC(=O)N3CCNCC3)ccc21 [Example 152, 1-Methyl-2-(6-trifluoromethoxy-benzothiazol-2-ylamino)-1H-benzimidazole-5-carboxylic acid (2-oxo-2-piperazin-1-yl-ethyl)-amide hydrochloride]  15
11. COCCNC(=O)c1cc2nc(Nc3nc4ccc(OC(F)(F)F)cc4s3)n(C)c2cc1F [Example 39, 6-Fluoro-1-methyl-2-(6-trifluoromethoxy-benzothiazol-2-ylamino)-1H-benzoimidazole-5-carboxylic acid (2-methoxy-ethyl)-amide]  18.2
12. Cn1c(Nc2nc3ccc(Cl)cc3s2)nc2cc(C(=O)NC3CCN(S(C)(=O)=O)CC3)ccc21 [Example 320, 2-(6-Chloro-benzothiazol-2-ylamino)-1-methyl-1H-benzoimidazole-5-carboxylic acid (1-methanesulfonyl-piperidin-4-yl)-amide]  20
13. COc1cc2c(cc1C(=O)O)nc(Nc1nc3ccc(OC(F)(F)F)cc3s1)n2C [Example 62, 6-Methoxy-1-methyl-2-(6-trifluoromethoxy-benzothiazol-2-ylamino)-1H-benzoimidazole-5-carboxylic acid]  20.3
14. COCCNC(=O)c1cnc2c(c1)nc(Nc1nc3ccc(OC(F)(F)F)cc3s1)n2C [Example 73, 3-Methyl-2-(6-trifluoromethoxy-benzothiazol-2-ylamino)-3H-imidazo[4,5-b]pyridine-6-carboxylic acid (2-methoxy-ethyl)-amide]  20.6
15. CCS(=O)(=O)CCNC(=O)c1ccc2c(c1)nc(Nc1nc3ccc(OC(F)(F)F)cc3s1)n2C [Example 109, 1-Methyl-2-(6-trifluoromethoxy-benzothiazol-2-ylamino)-1H-benzimidazole-5-carboxylic acid (2-ethanesulfonyl-ethyl)-amide]  20.9
16. CN(C)S(=O)(=O)N1CCN(C(=O)CNC(=O)c2ccc3c(c2)nc(Nc2nc4ccc(Cl)cc4s2)n3C)CC1 [Example 430, 2-(6-Chloro-benzothiazol-2-ylamino)-1-methyl-1H-benzoimidazole-5-carboxylic acid [2-(4-dimethylsulfamoyl-piperazin-1-yl)-2-oxoethyl]-amide]  22.7
17. Cn1c(Nc2nc3ccc(OC(F)(F)F)cc3s2)nc2cc(C(=O)NN3CCOCC3)ccc21 [Example 15, 1-Methyl-2-(6-trifluoromethoxy-benzothiazol-2-ylamino)-1H-benzoimidazole-5-carboxylic acid morpholin-4-ylamide]  22.8
18. CCOCCNC(=O)c1ccc2c(c1)nc(Nc1nc3ccc(Cl)cc3s1)n2C [Example 89, 2-(6-Chloro-benzothiazol-2-ylamino)-1-methyl-1H-benzoimidazole-5-carboxylic acid (2-ethoxy-ethyl)-amide]  23.7
19. Cn1c(Nc2nc3ccc(OC(F)(F)F)cc3s2)nc2cc(C(=O)NCCNC(=O)CO)ccc21 [Example 325, 1-Methyl-2-(6-trifluoromethoxy-benzothiazol-2-ylamino)-1H-benzoimidazole-5-carboxylic acid [2-(2-hydroxy-acetylamino)-ethyl]-amide]  32.4
20. CCn1c(Nc2nc3ccc(Oc4cccnc4)cc3s2)nc2cc(C(=O)NCCOC)ccc21 [Example 191, 1-Ethyl-2-[6-(pyridin-3-yloxy)-benzothiazol-2-ylamino]-1H-benzoimidazole-5-carboxylic acid (2-methoxy-ethyl)-amide]  33.8
21. CCN(CC)CCCCNC(=O)c1ccc2c(c1)nc(Nc1nc3ccc(OC(F)(F)F)cc3s1)n2C [Example 360, 1-Methyl-2-(6-trifluoromethoxy-benzothiazol-2-ylamino)-1H-benzoimidazole-5-carboxylic acid (4-diethylamino-butyl)-amide]  34.3
22. Cn1c(Nc2nc3ccc(Cl)cc3s2)nc2cc(C(=O)NCCC#N)ccc21 [Example 213, 2-(6-Chloro-benzothiazol-2-ylamino)-1-methyl-1H-benzoimidazole-5-carboxylic acid (2-cyano-ethyl)-amide]  48.6
23. Cn1c(Nc2nc3ccc(OC(F)(F)F)cc3s2)nc2cc(C(=O)NCCCCO)c(F)cc21 [Example 222, 6-Fluoro-1-methyl-2-(6-trifluoromethoxy-benzothiazol-2-ylamino)-1H-benzoimidazole-5-carboxylic acid (4-hydroxy-butyl)-amide]  49.9
24. CN(C)[C@H]1CCN(C(=O)CNC(=O)c2ccc3c(c2)nc(Nc2nc4ccc(Cl)cc4s2)n3C)C1 [Example 418, 2-(6-Chloro-benzothiazol-2-ylamino)-1-methyl-1H-benzoimidazole-5-carboxylic acid [2-((S)-3-dimethylamino-pyrrolidin-1-yl)-2-oxo-ethyl]-amide]  63.3
25. CN(C)CC(=O)N1CCC[C@@H](NC(=O)c2ccc3c(c2)nc(Nc2nc4ccc(Cl)cc4s2)n3C)C1 [Example 311, 2-(6-Chloro-benzothiazol-2-ylamino)-1-methyl-1H-benzoimidazole-5-carboxylic acid [(R)-1-(2-dimethylamino-acetyl)-piperidin-3-yl]-amide]  77.3
